Measured values taken from ChEMBL document CHEMBL1128998, “Chemical synthesis, DNA cleavage and antitumor activity of molecules with (Z)-7-sulfonyl-3-hexene-1,5-diyne functionalities” (Bioorg Med Chem Lett, 1996).
≈ marks a conversion by molar mass, not a printed value.

Experiments:
Format in all cases: functional, cell-based
Settings in all cases: Homo sapiens
HepG2 [1] = assay: Compound was tested in vitro for growth inhibition of Hep G2, […] cell line.
MOLT-4 = assay: Compound was tested in vitro for growth inhibition of Molt-4, leukemia cell line.
COLO 205 [2] = assay: Compound was tested in vitro for growth inhibition of COLO 205, colon cell line; Range=4-10 ug/ml
KB [3] = assay: Compound was tested in vitro for growth inhibition of KB, oral epidermoid cell line; Range=4-10 ug/ml
SK-BR-3 [4] = assay: Compound was tested in vitro for growth inhibition of SK-BR-3, breast adenocarcinoma cell line; Range=4-10 ug/ml
KB [5] = assay: Compound was tested in vitro for growth inhibition of KB, oral epidermoid cell line.
HepG2 [6] = assay: Compound was tested in vitro for growth inhibition of Hep G2, […] cell line; Range=4-10 ug/ml
HepG2 [7] = assay: Compound was tested in vitro for growth inhibition of Hep G2, […] cell line
COLO 205 [8] = assay: Compound was tested in vitro for growth inhibition of COLO 205, colon cell line.
SK-BR-3 [9] = assay: Compound was tested in vitro for growth inhibition of SK-BR-3, […] cell line.

IC50 (HepG2 [1]) [µg/mL]	IC50 (MOLT-4) [µg/mL]	IC50 (COLO 205 [2]) [µg/mL]	IC50 (KB [3]) [µg/mL]	IC50 (SK-BR-3 [4]) [µg/mL]	IC50 (KB [5]) [µg/mL]	IC50 (HepG2 [6]) [µg/mL]	IC50 (HepG2 [7]) [µg/mL]	IC50 (COLO 205 [8]) [µg/mL]	IC50 (SK-BR-3 [9]) [µg/mL]	SMILES
> 10		10 (≈ 31.4 µM)	10 (≈ 31.4 µM)	10 (≈ 31.4 µM)						COC(=O)c1ccccc1S(=O)(=O)CC#C/C=C\C#CCO
	< 4	10 (≈ 27.7 µM)		10 (≈ 27.7 µM)	10 (≈ 27.7 µM)	10 (≈ 27.7 µM)				O=S(=O)(CC#Cc1cc2ccccc2cc1C#CCO)c1ccccc1

Second part, the molecule before the results:

SMILES	IC50 (HepG2 [1]) [µg/mL]	IC50 (MOLT-4) [µg/mL]	IC50 (COLO 205 [2]) [µg/mL]	IC50 (KB [3]) [µg/mL]	IC50 (SK-BR-3 [4]) [µg/mL]	IC50 (KB [5]) [µg/mL]	IC50 (HepG2 [6]) [µg/mL]	IC50 (HepG2 [7]) [µg/mL]	IC50 (COLO 205 [8]) [µg/mL]	IC50 (SK-BR-3 [9]) [µg/mL]
O=S(=O)(CC#C/C=C\C#CCO)c1ccc2ccccc2c1	> 10	< 4	10 (≈ 32.2 µM)	10 (≈ 32.2 µM)	10 (≈ 32.2 µM)					
COc1ccc(S(=O)(=O)CC#C/C=C\C#CCO)cc1	> 10		10 (≈ 34.4 µM)	10 (≈ 34.4 µM)	10 (≈ 34.4 µM)					
O=S(=O)(CC#C/C=C\C#CCO)c1ccccc1			10 (≈ 38.4 µM)	10 (≈ 38.4 µM)	10 (≈ 38.4 µM)			> 10		
O=S(=O)(CC#Cc1ccccc1C#CCO)c1ccccc1		< 4				10 (≈ 32.2 µM)	10 (≈ 32.2 µM)		< 4	< 4
O=S(=O)(CC#Cc1ccccc1C#CCO)c1ccc2ccccc2c1	< 4									
